Laboratory results taken from patent US20020049161A1, “Pharmaceutical combination preparations containing erythropoietin and iron preparations” (Roche Diagnostics GmbH, priority 1995, published 2002).

How the values were obtained:
hemodialysis patients = assay: Iron status and safety diagnostic parameters in hemodialysis patients under rhEPO/iron therapy; type: in vivo, human
Protocol: When conducting the combination therapy using the combination preparation according to the invention, the maximum weekly dosage can be concluded in a quite simple fashion by determining the diagnostic parameters for the iron status, particularly the iron, transferrin, transferrin saturation and ferritin parameters.
Preferably, the ferritin concentration is at least 125 μg/l, particularly at least 150 μg/l, and up to 270 μg/l at maximum, especially up to 250 μg/l at maximum. Advantageously, the iron concentration is between 10-20 μmol/l (corresponding to about 56-112 μg/dl) and the transferrin concentration between […] (corresponding to about 240-480 mg/dl) The transferrin saturation is defined as the ratio of serum/plasma iron concentration to serum/plasma transferrin concentration (multiplied by a correction factor of 1.41). It is a non-dimensional figure not depending on the patient's hydration condition. The transferrin saturation is calculated according to the formula: […]
In order to safely exclude undesirable side effects, the acute phase parameter CRP (5 mg/l±100%) [CRP=C reactive protein) is measured, with CRP currently being regarded as the best protein marker of inflammatory reactions. In addition, the liver parameters GPT (glutamate pyruvate transaminase), GOT (glutamate oxalic acetate transaminase) and γ-GT (γ-glutamyltransferase) may be determined, which should fall within the following ranges: (determination at 37° C.): GPT: <50 U/l; GOT: <50 U/l; γ-GT: <40 U/l, with the GPT parameter currently ranking first in liver diagnostics.
The determination of the iron status is effected by analyzing samples of body fluids (blood, serum, urine, etc.) from the patients in question. For the determination of the iron status, particularly the concentrations of iron, transferrin, ferritin, transferrin receptor, the transferrin saturation, and the transferrin/ferritin saturation are determined. With hemodialysis patients, the iron, transferrin, ferritin and transferrin saturation parameters are preferably determined according to per se common analytical methods. […]

anemia patients = assay: Iron status and safety diagnostic parameters in anemia patients under rhEPO/iron therapy; type: in vivo, human
Protocol: When conducting the combination therapy using the combination preparation of the invention to treat anemia, the weekly maximum dosage can be concluded in a quite simple fashion by determining the diagnostic parameters transferrin receptor (TfR), ferritin and the ratio of TfR to ferritin.
Advantageously, the TfR concentration is between 1500-2500 μg/l. The concentration ratio of TfR (in μg/l) to ferritin (in μg/l) is particularly in the range of 15-35, preferably at values above 20.
In order to safely exclude undesirable side effects, the acute phase parameter CRP (2-10 mg/l) [CRP=C-reactive protein) is measured. In addition, the liver parameter GPT (glutamate pyruvate transaminase) may be determined, which should be <50 U/l at 37° C. (<30 U/l at 25° C.). Furthermore, the hematological control parameters such as hematocrit (fraction of red blood cells in total volume) or the increase in hypochromic erythrocytes may optionally be utilized, wherein the reticulocytes may increase to a value of up to 15/1000-30/1000. The typical hemoglobin concentration is about 12-18 g/dl.
The determination of the iron status is effected by analyzing samples of body fluids (blood, serum, urine, etc.) from the patients in question. For the determination of the iron status, particularly the concentrations of iron, transferrin, ferritin, transferrin receptor, the transferrin saturation, and the transferrin/ferritin saturation are determined. With hemodialysis patients, the iron, transferrin, ferritin and transferrin saturation parameters are preferably determined according to per se common analytical methods. In particular, the determination of the transferrin/ferritin saturation value is relevant. In the case of anemia patients whose anemia has not been caused by hemodialysis, the ferritin concentration and the concentration of transferrin receptor are determined above all. In particular, the determination of the ratio of transferrin receptor to ferritin (transferrin receptor/ferritin saturation value) is relevant.
In addition, the serum ferritin level is determined. Ferritin is an iron-storing glycoprotein of which tissue-typical isoferritins are existing and which can be determined in the serum by immunological means, e.g., by a radioimmunoassay (RIA) or by turbidimetric methods as well. The ferritin value is a measure for iron storage in the tissue. In most of the laboratories, the normal range is between 30 and 300 ng/ml, and the geometrical mean value is 88 in males and 49 in females. The serum ferritin values are in close relationship to the total iron reserve of the body. Therefore, decreased serum ferritin levels are found only in case of iron deficiency. Increased levels are found in case of iron overloading. Likewise, increased serum ferritin levels are found in case of liver lesions or in association with some types of neoplasia, where ferritins may be bound to acute phase proteins. Similarly, the serum transferrin receptor may be determined using an enzyme-enhanced immune absorption test (enzyme-linked immunosorbent assay=ELISA), wherein a monoclonal antibody against the soluble receptor is used. The reference range is between 0.5-3 mg/l. The level is increased in case of slight deficiency in the iron depots. The concentrations of specific erythrocyte ferritins may be determined in order to characterize the iron depots, particularly if the serum ferritin cannot be utilized in case of tissue lesions or due to acute phase reactions.

[1] = Patient B (hemodialysis), 5,000 U rhEPO three times a week over 3 weeks
[2] = Patient E (anemia), 5,000 U rhEPO three times a week over 3 weeks
[3] = Patient F (anemia), iron infusions omitted, within 3 weeks

recombinant human erythropoietin [rhEPO]
ferritin value decreased to (hemodialysis patients; [1]): < 500 µg/L
transferrin saturation decreased to (hemodialysis patients; [1]): < 25%
ferritin values lowered to (hemodialysis patients; Patient C (hemodialysis), iron infusions omitted, within 3 weeks): 500 µg/L
ferritin value decreased to (anemia patients; [2]): < 500 µg/L
transferrin receptor value increased to (anemia patients; [2]): above 1500 μg/l
transferrin saturation decreased to (anemia patients; [2]): < 25%
ferritin values lowered to (anemia patients; [3]): < 500 µg/L
transferrin receptor values increased to (anemia patients; [3]): above 1500 μg/l
